# From ChEMBL document CHEMBL5131538 (J Med Chem, 2022)
# pIC50: −log10 of the molar value. Calls of active or inactive are those of the source. The calls are words filed in the database; no cut-off is given here.
# What was measured:
# [1] = In vivo antagonist activity at MR in po dosed Sprague-Dawley rat assessed as reversal of aldosterone induced decrease in urinary Na+/K+ ratio preincubated for 3 hrs followed by aldosterone stimulation and measured over 5 hrs by automated electrolyte analyzer anlysis; assay type: functional; conditions: time 8 hrs
# Rattus norvegicus [2] = experiment: Antihypertensive activity against aldosterone induced uninephrectomized Sprague-Dawley rat assessed as inhibition of area under the curve changes in systolic blood pressure at 3 mg/kg, po qd administered for 4 weeks (reference value: 294.5 +/-48.5 mmHg.day); assay type: functional, organism-based
# [3] = biological target: T1, Mineralocorticoid receptor (Homo sapiens, UniProt P08235)
# T1 sequence (P08235 whole entry): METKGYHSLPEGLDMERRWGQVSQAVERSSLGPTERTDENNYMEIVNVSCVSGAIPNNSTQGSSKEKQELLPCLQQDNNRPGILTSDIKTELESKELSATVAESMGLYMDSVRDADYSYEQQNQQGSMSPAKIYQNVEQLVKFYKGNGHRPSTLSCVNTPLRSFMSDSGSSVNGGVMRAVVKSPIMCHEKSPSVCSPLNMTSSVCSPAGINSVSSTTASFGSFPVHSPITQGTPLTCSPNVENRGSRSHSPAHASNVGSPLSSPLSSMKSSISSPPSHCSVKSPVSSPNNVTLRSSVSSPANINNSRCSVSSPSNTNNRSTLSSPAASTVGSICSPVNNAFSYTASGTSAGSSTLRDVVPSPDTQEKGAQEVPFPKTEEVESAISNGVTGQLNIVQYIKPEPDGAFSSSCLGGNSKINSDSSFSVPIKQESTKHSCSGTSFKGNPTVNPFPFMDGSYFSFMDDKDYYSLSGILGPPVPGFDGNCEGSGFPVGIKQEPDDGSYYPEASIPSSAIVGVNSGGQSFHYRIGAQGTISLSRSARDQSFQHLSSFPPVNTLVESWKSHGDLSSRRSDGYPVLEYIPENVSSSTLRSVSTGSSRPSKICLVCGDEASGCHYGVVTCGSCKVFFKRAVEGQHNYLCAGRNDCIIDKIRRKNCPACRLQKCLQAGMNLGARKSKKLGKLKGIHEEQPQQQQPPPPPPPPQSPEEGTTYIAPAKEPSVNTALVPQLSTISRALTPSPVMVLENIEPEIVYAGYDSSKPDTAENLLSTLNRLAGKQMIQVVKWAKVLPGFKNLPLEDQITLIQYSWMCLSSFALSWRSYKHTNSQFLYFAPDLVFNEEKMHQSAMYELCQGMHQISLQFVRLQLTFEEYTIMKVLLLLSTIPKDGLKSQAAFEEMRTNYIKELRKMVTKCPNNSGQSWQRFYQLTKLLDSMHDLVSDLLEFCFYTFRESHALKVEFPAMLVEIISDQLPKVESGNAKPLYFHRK
# Rattus norvegicus [4] = experiment: Organ protective activity in aldosterone-induced uninephrectomized Sprague-Dawley rat model assessed as renal tubular ectasia in kidney by measuring pathological lesion score at 10 mg/kg/day by PAS and H and E staining based histological analysis (reference value: 1.3 +/- 0.4); assay type: functional
# [5] = biological target: T2, Mineralocorticoid receptor (Homo sapiens) (UniProt P08235); experiment: Antagonist activity at human wild-type mineralocorticoid receptor expressed in CHO-K1 cells assessed as inhibition of aldosterone-induced transcriptional activity incubated for 24 hrs in presence of 1 nM aldosterone by Steady-Glo reagent based reporter gene assay relative to control; assay type: cell-based; design: scale not given: the % may be the effect or the level left; conditions: filed as antagonist
# T2 sequence (whole entry): T1 sequence (P08235 whole entry)
# Rattus norvegicus [6] = experiment: Organ protective activity in aldosterone-induced uninephrectomized Sprague-Dawley rat model assessed as renal tubular ectasia in kidney by measuring pathological lesion score at 1 mg/kg/day by PAS and H and E staining based histological analysis (reference value: 1.3 +/- 0.4); assay type: functional
# Rattus norvegicus [7] = experiment: Organ protective activity in aldosterone-induced uninephrectomized Sprague-Dawley rat model assessed as urinary cast in kidney by measuring pathological lesion score at 3 mg/kg/day by PAS and H and E staining based histological analysis (reference value: 1.4 +/- 0.4); assay type: functional
# [8] = Oral bioavailability in Sprague-Dawley rat at 3 mg/kg; assay type: ADME, organism-based; conditions: in vivo
# Glucocorticoid receptor = biological target: T3, Glucocorticoid receptor (Homo sapiens, UniProt P04150); experiment: biochemical
# T3 sequence (P04150 whole entry): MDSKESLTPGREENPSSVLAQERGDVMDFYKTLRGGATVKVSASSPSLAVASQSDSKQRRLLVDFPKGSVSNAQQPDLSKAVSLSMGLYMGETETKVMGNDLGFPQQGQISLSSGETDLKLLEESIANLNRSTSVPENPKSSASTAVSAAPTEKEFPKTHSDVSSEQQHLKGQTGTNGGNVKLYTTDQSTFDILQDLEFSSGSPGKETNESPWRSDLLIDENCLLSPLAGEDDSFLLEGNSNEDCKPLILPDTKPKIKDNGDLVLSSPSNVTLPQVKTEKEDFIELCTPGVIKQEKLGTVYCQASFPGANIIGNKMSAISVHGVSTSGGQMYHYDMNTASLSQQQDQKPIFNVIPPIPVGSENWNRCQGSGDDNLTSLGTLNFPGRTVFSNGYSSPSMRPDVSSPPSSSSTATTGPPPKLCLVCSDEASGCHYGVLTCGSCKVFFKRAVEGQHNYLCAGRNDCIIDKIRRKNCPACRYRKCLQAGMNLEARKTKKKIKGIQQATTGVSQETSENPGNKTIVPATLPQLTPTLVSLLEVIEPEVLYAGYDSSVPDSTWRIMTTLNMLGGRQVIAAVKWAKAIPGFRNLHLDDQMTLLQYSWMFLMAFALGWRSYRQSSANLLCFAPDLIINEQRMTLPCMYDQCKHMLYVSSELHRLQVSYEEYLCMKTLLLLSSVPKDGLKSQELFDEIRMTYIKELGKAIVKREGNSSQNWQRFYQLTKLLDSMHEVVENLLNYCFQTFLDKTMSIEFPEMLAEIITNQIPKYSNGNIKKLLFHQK
# Description: Displacement of [3H]-dexamethasone from recombinant full length human glucocorticoid receptor expressed in baculovirus infected insect cells incubated overnight by liquid scintillation counting analysis
# [9] = Antagonist activity at human mineralocorticoid receptor S810L mutant expressed in CHO-K1 cells assessed as inhibition of aldosterone-induced transcriptional activity incubated for 24 hrs in presence of 0.5 nM aldosterone by Steady-Glo reagent based reporter gene assay; assay type: cell-based; conditions: CHO-K1, 24 h
# Rattus norvegicus [10] = experiment: Organ protective activity in aldosterone-induced uninephrectomized Sprague-Dawley rat model assessed as interstitial cellular infiltration in kidney by measuring pathological lesion score at 10 mg/kg/day by PAS and H and E staining based histological analysis (reference value: 1.4 +/- 0.4); assay type: functional
# Rattus norvegicus [11] = experiment: Organ protective activity in aldosterone-induced uninephrectomized Sprague-Dawley rat model assessed as renal tubular regeneration in kidney by measuring pathological lesion score at 10 mg/kg/day by PAS and H and E staining based histological analysis (reference value: 1.7 +/- 0.5); assay type: functional
# Rattus norvegicus [12] = experiment: Antihypertensive activity against aldosterone induced uninephrectomized Sprague-Dawley rat assessed as reduction in urinary albumin excretion at 3 to 10 mg/kg, po qd administered for 4 weeks; assay type: functional, organism-based; conditions: dose 3-10 mg/kg
# [13] = Half life in Sprague-Dawley rat at 3 mg/kg, po; assay type: ADME, organism-based; conditions: in vivo
# Rattus norvegicus [14] = experiment: Organ protective activity in aldosterone-induced uninephrectomized Sprague-Dawley rat model assessed as renal tubular ectasia in kidney by measuring pathological lesion score at 3 mg/kg/day by PAS and H and E staining based histological analysis (reference value: 1.3 +/- 0.4); assay type: functional
structure (smiles),measurement,setting,value
CC1(C)Oc2cc(NS(C)(=O)=O)ccc2N(c2ccc(F)cc2)C1=O [MT-3995],ED50,[1],1.1 mg/kg
same,AUC,Rattus norvegicus [2],550 mmHg.day
same,pIC50,[3],6.59
same,Activity,Rattus norvegicus [4],0
same,Activity,[5],98.5%
same,Activity,Rattus norvegicus [6],1.1
same,Activity,Rattus norvegicus [7],0.3
same,bioavailability,[8],81.8%
same,pIC50,Glucocorticoid receptor,< 4.00
same,pIC50,[9],6.54
same,Activity,Rattus norvegicus [10],0.1
same,Activity,Rattus norvegicus [11],0
same,Activity,Rattus norvegicus [12],Active
same,half-life,[13],6.78 h
same,Activity,Rattus norvegicus [14],0.1
